Results reported in patent US10662164B2, “Non-beta lactam antibiotics” (University of Notre Dame du Lac, priority 2014, dated 2020).
In brackets after ≈: the same amount, converted by molar mass. Like-named read-outs stand apart in the source and are kept apart here.

Legend:
S. aureus VRS2 = assay: MIC determination; type: cell-based; conditions: Staphylococcus aureus
Excerpt: (§1) The ESKAPE organisms (E. faecium NCTC (ATCC 19734), S. aureus ATCC 29213, K. pneumonia ATCC 700603, A. baumannii ATCC 17961, P. aeruginosa ATCC 17853, E. aerogenes ATCC 35029) and E. coli ATCC 25922) in the initial screen, S. aureus ATCC 27660, S. epidermis ATCC 35547, S. haemolyticus ATCC 29970, S. oralis ATCC 9811, S. pyogenes ATCC 49399, B. cereus ATCC 13061, B. licheniformis ATCC 12759, and E. faecalis ATCC 29212 were purchased from the American Type Culture Collection (Manassas, Va., USA). S. aureus strains NRS100, NRS119, NRS120, VRS1, and VRS2 were obtained from the Network on Antimicrobial Resistance in Staphylococcus aureus (Chantilly, Va., USA). E. faecalis strains 201 and 99, and E. faecium strains 119-39A and 106 were collected from Wayne State University School of Medicine.
(§2) The procedure for MIC determination was the same as previously reported (Tran et al., Am. J. Clin. Dermatol. 2015; doi 10.1007/S40257-015-0125-9).

[1] = system: E. faecium 119-39A (Van S); assay: MIC determination; type: cell-based; conditions: Enterococcus faecium
Excerpt: as §1, §2

S. aureus NRS119 = assay: MIC determination; type: cell-based; conditions: Staphylococcus aureus
Excerpt: as §1, §2

[2] = system: B. licheniformis ATCC 12759; assay: MIC determination; type: cell-based; conditions: Bacillus licheniformis, ATCC12759
Excerpt: as §1, §2

E. faecalis ATCC 29212 = assay: MIC determination; type: cell-based; conditions: Enterococcus faecalis, ATCC29212
Excerpt: as §1, §2

E. faecalis 201 (Van S) = assay: MIC determination; type: cell-based; conditions: Enterococcus faecalis
Excerpt: as §1, §2

S. aureus ATCC 27660 [3] = assay: MIC determination; type: cell-based; conditions: Staphylococcus aureus, ATCC27660
Excerpt: as §1, §2

S. aureus NRS120 = assay: MIC determination; type: cell-based; conditions: Staphylococcus aureus
Excerpt: as §1, §2

E. faecium 106 (Van R) = assay: MIC determination; type: cell-based; conditions: Enterococcus faecium; vancomycin-resistant clinical isolate; Tables 1 and 5; read-out: MIC
Excerpt: as §1, §2

E. faecalis 99 (Van R) = assay: MIC determination; type: cell-based; conditions: Enterococcus faecalis; vancomycin-resistant clinical isolate; Tables 1 and 5
Excerpt: as §1, §2

[4] = Plasma protein binding, equilibrium dialysis; conditions: 10 μM, 37° C., 6 h
Method: Protein binding for compounds 60b, 60c, 65b, 66b, 75b and 76b was determined in human plasma using equilibrium dialysis.
Plasma protein binding was determined using human plasma and a rapid equilibrium dialysis device (Pierce Biotechnology, Thermo Scientific, Waltham, Mass., USA). Human plasma was thawed and centrifuged at 1200 g for 10 min to remove particulates. A […] aliquot of human plasma was added to the sample chamber and 350 μL of 0.1 M phosphate buffered saline (pH 7.4) containing […] sodium chloride was added to the adjacent chamber. A 2-μL aliquot of a stock solution of the compounds at a concentration of 1 mM in DMSO was diluted with human plasma to a final drug concentration of 10 μM and added to the sample chamber. The compounds were dialyzed at 37° C. in an orbital shaker for 6 h. Aliquots (50 μL) were taken from the buffer chamber (representing the free concentration) and from the plasma chamber (representing the total concentration) and mixed with 100 μL of internal standard in acetonitrile to a final concentration of 5 μM. Samples were analyzed by UPLC with UV detection at 285 nm. The plasma protein binding ratio (B %) was calculated according to the following equation: B%=(Cp−Cf)/Cp×100 where Cp and Cf are the total plasma concentration and the free concentration of compound, respectively.

S. aureus ATCC 27660 [5] = assay: Mouse peritonitis model of infection; type: in vivo; conditions: for Mouse peritonitis (survived/total): iv at 20 mg/kg at 30 min and 7.5 h after infection, survival at 48 h
Method: Compounds 60b, 60c, 65b, 66b, 75b and 76b were evaluated in the mouse peritonitis model of infection (Table 2). We used the ICR out-bred strain of mice that provides a heterogeneous population, similar to the human situation, thus, ensuring the relevance of the antibacterial effect. This animal model of infection is widely used, it is easy to carry out, and the end points (death or survival) are rapidly assessed, making it less resource-intensive compared to other infection models. In addition, excellent correlation between MIC and ED50 has been shown for 14 β-lactam antibiotics using this model (Kratochwil et al., Biochem. Pharmacol. 2002, 64, 1355). The mouse peritonitis infection model continues to be an important model for evaluation of the efficacy of antibiotics against human pathogens. We use the iv route of administration in initial efficacy studies, as this allows us to test the efficacy without knowledge of the oral bioavailability of the lead. Evaluation was done at 20 mg/kg.
Female ICR mice (6-8 weeks old, ˜20-g body weight) were used for the PK and peritonitis studies. Animals were purchased from Harlan Laboratories, Inc. (Indianapolis, Ind., USA) and given Teklad 2019 Extruded Rodent Diet and water ad libitum. Mice were maintained in polycarbonate shoebox cages with ¼″ corncob (The Andersons Inc., Maumee, Ohio) and Alpha-dri (Sheperd Specialty Papers, Inc., Richland, Mich.) bedding under 12-h light/12-h dark cycle at 72±2° F.
The mouse peritonitis model was used with S. aureus ATCC 27660, as described previously (Tran et al., Am. J. Clin. Dermatol. 2015; doi 10.1007/S40257-015-0125-9). The final bacterial inocula contained 5×10^7 cfu/mL and 5% mucin (Sigma-Aldrich Chemical Co., St Louis, Mo., USA). Just prior to inoculation, bacteria at 10^8 cfu/mL were mixed 1:1 with 10% mucin. Mice (n=6 per group) were given 0.5 mL of the bacterial inocula intraperitoneally. Mice were given two iv doses of the compounds at 30 min and 7.5 h after infection by tail vein injection. […] Mice were monitored for 48 h, at which time the number of surviving mice were counted.
The effective dose that results in survival of 50% of the mice was determined using Probit analysis (XLSTAT, New York, N.Y.). Groups of six mice per dose level were evaluated in the mouse peritonitis infection model at iv doses of 2.5, 5, 7.5, 10, 15, and 20 mg/kg and after po doses at 2.5, 5, 10, 20, and 40 mg/kg. […]

[6] = vancomycin-resistant MRSA (vanA) isolate from Pennsylvania, Tables 1 and 5, read-out: MIC
[7] = vancomycin-susceptible clinical isolate, Tables 1 and 5, read-out: MIC
[8] = mecA positive, linezolid-resistant, Tables 1 and 5, read-out: MIC
[9] = quality-control strain, Tables 1 and 5, read-out: MIC
[10] = mecA positive, resistant to methicillin, oxacillin, tetracycline, Tables 1 and 5, read-out: MIC
[11] = Staphylococcus aureus, ATCC27660, iv, 2 doses given at 30 min and 7.5 h after infection, read-out: ED50
[12] = Staphylococcus aureus, ATCC27660, po, single dose given at 1 h after infection, read-out: ED50

Structure (SMILES)	MIC (S. aureus VRS2; [6])	MIC [1, 7]	MIC (S. aureus NRS119; [8])	MIC ([2]; Tables 1 and 5, read-out: MIC)	MIC (E. faecalis ATCC 29212; [9])	MIC (E. faecalis 201 (Van S); [7])	MIC (S. aureus ATCC 27660 [3]; [10])	MIC (S. aureus NRS120; [8])	MIC (E. faecium 106 (Van R))	MIC (E. faecalis 99 (Van R))	Human plasma protein binding [4]	Mouse peritonitis (survived/total) (S. aureus ATCC 27660 [5])	other results
Oc1ccc(-c2nc(-c3ccc(Oc4ccc(C(F)(F)F)cc4)cc3)no2)cc1 [Compound 1]	2 µg/mL (≈ 5.02 µM)	1 µg/mL (≈ 2.51 µM)	2 µg/mL (≈ 5.02 µM)	2 µg/mL (≈ 5.02 µM)	2 µg/mL (≈ 5.02 µM)	2 µg/mL (≈ 5.02 µM)	2 µg/mL (≈ 5.02 µM)	2 µg/mL (≈ 5.02 µM)	2 µg/mL (≈ 5.02 µM)	2 µg/mL (≈ 5.02 µM)	99.9 ± 0.1%		ED50 (S. aureus ATCC 27660 [5]; [11]): 40 mg/kg; ED50 (S. aureus ATCC 27660 [5]; [12]): 44 mg/kg
FC(F)(F)c1ccc(Oc2ccc(-c3noc(-c4n[nH]cc4Cl)n3)cc2)cc1 [Compound 60b, 5-(4-Chloro-1H-pyrazol-3-yl)-3-(4-(4-(trifluoromethyl)phenoxy)phenyl)-1,2,4-oxadiazole]	0.5 to 1 µg/mL (≈ 1.23 to 2.46 µM)	> 128 µg/mL		> 128 µg/mL	> 128 µg/mL	> 128 µg/mL	2 µg/mL (≈ 4.92 µM)	64 µg/mL (≈ 157 µM)	> 128 µg/mL	> 128 µg/mL	97.8 ± 0.3%	4/6	
Fc1ccc(Oc2ccc(-c3noc(-c4n[nH]cc4Cl)n3)cc2)cc1 [Compound 60c, 5-(4-Chloro-1H-pyrazol-3-yl)-3-(4-(4-fluorophenoxy)phenyl)-1,2,4-oxadiazole]		> 128 µg/mL	2 µg/mL (≈ 5.61 µM)	> 128 µg/mL	> 128 µg/mL	> 128 µg/mL		64 µg/mL (≈ 179 µM)	> 128 µg/mL	> 128 µg/mL	94.5 ± 2.1%	2/6	
CC(C)Nc1c[nH]nc1-c1nc(-c2ccc(Oc3ccc(C(F)(F)F)cc3)cc2)no1 [Compound 65b, N-Isopropyl-3-(3-(4-(4-(trifluoromethyl)phenoxy)phenyl)-1,2,4-oxadiazol-5-yl)-1H-pyrazol-4-amine]											91.6 ± 0.3%	1/6	MIC (S. aureus VRS2; MRSA): 4 µg/mL (≈ 9.32 µM); MIC [1]: > 128 µg/mL; MIC (S. aureus NRS119): 2 µg/mL (≈ 4.66 µM); MIC [2]: > 128 µg/mL; MIC (E. faecalis ATCC 29212): > 128 µg/mL; MIC (E. faecalis 201 (Van S)): > 128 µg/mL; MIC (S. aureus ATCC 27660 [3]): 0.5 µg/mL (≈ 1.16 µM); MIC (S. aureus NRS120): > 128 µg/mL
C#Cc1c[nH]nc1-c1nc(-c2ccc(Oc3ccc(C(F)(F)F)cc3)cc2)no1 [Compound 66b, 5-(4-Ethynyl-1H-pyrazol-3-yl)-3-(4-(4-(trifluoromethyl)phenoxy)phenyl)-1,2,4-oxadiazole]	0.5 µg/mL (≈ 1.26 µM)		32 µg/mL (≈ 80.7 µM)	> 128 µg/mL	> 128 µg/mL	> 128 µg/mL	0.5 µg/mL (≈ 1.26 µM)	> 128 µg/mL		> 128 µg/mL	96.4 ± 2.7%	2/6	
FC(F)(F)c1ccc(Oc2ccc(-c3noc(-c4ccc5[nH]ccc5c4)n3)cc2)cc1 [Compound 75b, 5-(1H-Indol-5-yl)-3-(4-(4-(trifluoromethyl)phenoxy)phenyl)-1,2,4-oxadiazole]										16 µg/mL (≈ 38 µM)	98.2±3.2%	5/6	ED50 (S. aureus ATCC 27660 [5]; [11]): 7.6 mg/kg; ED50 (S. aureus ATCC 27660 [5]; Staphylococcus aureus, ATCC27660, po, 2 doses given at 30 min and 7.5 h after infection, read-out: ED50): 1.7 mg/kg; ED50 (S. aureus ATCC 27660 [5]; [12]): 3.1 mg/kg; ED50 (S. aureus ATCC 27660 [5]; iv, 2 doses given at 30 min and 7.5 h after infection): 7.6 mg/kg; ED50 (S. aureus ATCC 27660 [5]; po, 2 doses given at 30 min and 7.5 h after infection): 1.7 mg/kg; ED50 (S. aureus ATCC 27660 [5]; po, single dose given at 1 h after infection): 3.1 mg/kg; ED50, fold better than that of 1 (S. aureus ATCC 27660 [5]; single po dose given at 1 h after infection): 14 fold
FC(F)(F)c1ccc(Oc2ccc(-c3noc(-c4c[nH]cn4)n3)cc2)cc1 [Compound 76b, 5-(1H-Imidazol-4-yl)-3-(4-(4-(trifluoromethyl)phenoxy)phenyl)-1,2,4-oxadiazole]											93.5 ± 2.4%	3/6	
